Data published in US20120121591A1 (priority 2009, published 2012).
Read-outs that look alike come from different tables or passages of the source. Positions of bridges follow the written chain, without caps; N, C: chain ends. Residues, ends and D or L forms follow the SMILES beside them.

Tests used:
Assay type in all cases: cell-based
[1] = system: IFN-g secretion from T cells in human whole blood
[2] = target: hKv1.3 (Homo sapiens, UniProt P22001); experiment: cell-based; details: Kv1.3 (IWQ) IC50 (nM, Avg)
[3] = system: IL-2 secretion from T cells in human whole blood; details: read-out: WB (IL-2) IC50 (nM, Avg)
[4] = read-out: WB (IFNg) IC50 (nM, Avg)

hKv1.3, sequence (P22001 whole entry): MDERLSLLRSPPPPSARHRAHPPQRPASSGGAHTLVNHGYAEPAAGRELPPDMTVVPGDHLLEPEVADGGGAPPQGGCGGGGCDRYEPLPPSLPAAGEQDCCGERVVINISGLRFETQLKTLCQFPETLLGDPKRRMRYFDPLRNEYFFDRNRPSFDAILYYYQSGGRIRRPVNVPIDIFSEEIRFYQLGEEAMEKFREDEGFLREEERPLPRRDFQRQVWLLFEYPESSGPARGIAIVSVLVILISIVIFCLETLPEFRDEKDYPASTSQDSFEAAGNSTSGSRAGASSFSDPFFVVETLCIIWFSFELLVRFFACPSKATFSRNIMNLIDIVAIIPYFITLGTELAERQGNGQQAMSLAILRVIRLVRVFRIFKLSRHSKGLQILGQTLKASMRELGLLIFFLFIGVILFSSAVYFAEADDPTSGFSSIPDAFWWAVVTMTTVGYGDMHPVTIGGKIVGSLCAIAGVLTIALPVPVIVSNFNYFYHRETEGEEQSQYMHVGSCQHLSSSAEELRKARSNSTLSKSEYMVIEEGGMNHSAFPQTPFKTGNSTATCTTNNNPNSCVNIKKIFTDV

CCCC[C@@H]1NC(=O)[C@H](CO)NC(=O)[C@H](Cc2c[nH]cn2)NC(=O)[C@H](CCCCN)NC(=O)[C@@H]2CSSC[C@@H]3NC(=O)[C@H]([C@@H](C)O)NC(=O)[C@H](CCCCN)NC(=O)[C@H](CCCNC(=N)N)NC(=O)[C@H](CSSC[C@H](NC(=O)[C@H](CCCNC(=N)N)NC(=O)[C@H](CO)NC(=O)[C@H](CCCCN)NC(=O)[C@@H]4CCCN4C(=O)[C@H]([C@@H](C)CC)NC(=O)[C@H]([C@@H](C)O)NC(=O)[C@H](CC(=O)O)NC(=O)[C@H]([C@@H](C)CC)NC(=O)[C@@H](NC(=O)[C@H](CO)NC(=O)[C@@H](N)CCCNC(=N)N)CSSC[C@@H](C(N)=O)NC(=O)[C@H]([C@@H](C)O)NC(=O)CNC3=O)C(=O)N[C@@H]([C@@H](C)O)C(=O)N[C@@H](C)C(=O)N[C@@H](C)C(=O)N[C@@H](CCCCN)C(=O)N2)NC(=O)[C@H](Cc2ccccc2)NC(=O)[C@H](CO)NC(=O)[C@H](CC(C)C)NC(=O)[C@H](CCCNC(=N)N)NC(=O)[C@H](Cc2ccc(O)cc2)NC(=O)[C@H](CCCCN)NC1=O [[Ala15, Lys16,Nle21]ShK-amide]
IC50 [1, 4]: 1.87 nM
IC50 [2]: 0.127 nM
IC50 [3]: 0.952 nM

CC[C@H](C)[C@@H]1NC(=O)[C@@H](NC(=O)[C@H](CO)NC(=O)[C@@H](N)CCCNC(=N)N)CSSC[C@@H](C(=O)O)NC(=O)[C@H]([C@@H](C)O)NC(=O)CNC(=O)[C@@H]2CSSC[C@@H]3NC(=O)[C@H](CCC(N)=O)NC(=O)[C@H](Cc4ccccc4)NC(=O)[C@H](C)NC(=O)[C@H]([C@@H](C)O)NC(=O)[C@H](CSSC[C@H](NC(=O)[C@H](Cc4ccccc4)NC(=O)[C@H](CO)NC(=O)[C@H](CC(C)C)NC(=O)[C@H](CCCNC(=N)N)NC(=O)[C@H](Cc4ccc(O)cc4)NC(=O)[C@H](CCCCN)NC(=O)[C@H](CCSC)NC(=O)[C@H](CO)NC(=O)[C@H](Cc4c[nH]cn4)NC(=O)[C@H](CCCCN)NC3=O)C(=O)N[C@@H](CCCNC(=N)N)C(=O)N[C@@H](CCCCN)C(=O)N[C@@H]([C@@H](C)O)C(=O)N2)NC(=O)[C@H](CCCNC(=N)N)NC(=O)[C@H](CCCCN)NC(=O)[C@H](CCCCN)NC(=O)[C@@H]2CCCN2C(=O)[C@H]([C@@H](C)CC)NC(=O)[C@H]([C@@H](C)O)NC(=O)[C@H](CC(=O)O)NC1=O [[Lys10]ShK]
IC50 [1, 4]: 0.082 nM
IC50 [2]: 0.174 nM
IC50 [3]: 0.052 nM

CC[C@H](C)[C@@H]1NC(=O)[C@@H](NC(=O)[C@H](CO)NC(=O)[C@@H](N)CCCNC(=N)N)CSSC[C@@H](C(=O)O)NC(=O)[C@H]([C@@H](C)O)NC(=O)CNC(=O)[C@@H]2CSSC[C@@H]3NC(=O)[C@H](CCC(N)=O)NC(=O)[C@H](Cc4ccccc4)NC(=O)[C@H](C)NC(=O)[C@H]([C@@H](C)O)NC(=O)[C@H](CSSC[C@H](NC(=O)[C@H](Cc4ccccc4)NC(=O)[C@H](CO)NC(=O)[C@H](CC(C)C)NC(=O)[C@H](CCCNC(=N)N)NC(=O)[C@H](Cc4ccc(O)cc4)NC(=O)[C@H](CCCCN)NC(=O)[C@H](CCSC)NC(=O)[C@H](CO)NC(=O)[C@H](Cc4c[nH]cn4)NC(=O)[C@H](CCCCN)NC3=O)C(=O)N[C@@H](CCCNC(=N)N)C(=O)N[C@@H](CCCCN)C(=O)N[C@@H]([C@@H](C)O)C(=O)N2)NC(=O)[C@H](CCCNC(=N)N)NC(=O)[C@H](CO)NC(=O)[C@H](CCCCN)NC(=O)[C@H](CCCNC(=N)N)NC(=O)[C@H]([C@@H](C)CC)NC(=O)[C@H]([C@@H](C)O)NC(=O)[C@H](CC(=O)O)NC1=O [[Arg8]ShK]
IC50 [1, 4]: 1.42 nM
IC50 [2]: 0.07 nM
IC50 [3]: 0.187 nM

CC[C@H](C)[C@@H]1NC(=O)[C@@H](NC(=O)[C@H](CO)NC(=O)[C@@H](N)CCCNC(=N)N)CSSC[C@@H](C(=O)O)NC(=O)[C@H]([C@@H](C)O)NC(=O)CNC(=O)[C@@H]2CSSC[C@@H]3NC(=O)[C@H](CCC(N)=O)NC(=O)[C@H](Cc4ccccc4)NC(=O)[C@H](C)NC(=O)[C@H]([C@@H](C)O)NC(=O)[C@H](CSSC[C@H](NC(=O)[C@H](Cc4ccccc4)NC(=O)[C@H](CO)NC(=O)[C@H](CC(C)C)NC(=O)[C@H](CCCNC(=N)N)NC(=O)[C@H](Cc4ccc(O)cc4)NC(=O)[C@H](CCCCN)NC(=O)[C@H](CCSC)NC(=O)[C@H](CO)NC(=O)[C@H](Cc4c[nH]cn4)NC(=O)[C@H](CCCCN)NC3=O)C(=O)N[C@@H](CCCNC(=N)N)C(=O)N[C@@H](CCCCN)C(=O)N[C@@H](CCC(=O)O)C(=O)N2)NC(=O)[C@H](CCCNC(=N)N)NC(=O)[C@H](CO)NC(=O)[C@H](CCCCN)NC(=O)[C@@H]2CCCN2C(=O)[C@H]([C@@H](C)CC)NC(=O)[C@H]([C@@H](C)O)NC(=O)[C@H](CC(=O)O)NC1=O [[Glu31]ShK]
IC50 ([1]; read-out: WB (IFNg) IC5- (nM, Avg)): 0.309 nM
IC50 [2]: 0.22 nM
IC50 [3]: 0.242 nM

CC[C@H](C)[C@@H]1NC(=O)[C@@H](NC(=O)[C@H](CO)NC(=O)[C@@H](N)CCCNC(=N)N)CSSC[C@@H](C(=O)O)NC(=O)[C@H]([C@@H](C)O)NC(=O)CNC(=O)[C@@H]2CSSC[C@@H]3NC(=O)[C@H](CCC(N)=O)NC(=O)[C@H](Cc4ccccc4)NC(=O)[C@H](C)NC(=O)[C@H]([C@@H](C)O)NC(=O)[C@H](CSSC[C@H](NC(=O)[C@H](Cc4ccccc4)NC(=O)[C@H](CO)NC(=O)[C@H](CC(C)C)NC(=O)[C@H](CCCNC(=N)N)NC(=O)[C@H](Cc4ccc(O)cc4)NC(=O)[C@H](CCCCN)NC(=O)[C@H](Cc4cccc5ccccc45)NC(=O)[C@H](CO)NC(=O)[C@H](Cc4c[nH]cn4)NC(=O)[C@H](CCCCN)NC3=O)C(=O)N[C@@H](CCCNC(=N)N)C(=O)N[C@@H](CCCCN)C(=O)N[C@@H]([C@@H](C)O)C(=O)N2)NC(=O)[C@H](CCCNC(=N)N)NC(=O)[C@H](CO)NC(=O)[C@H](CCCCN)NC(=O)[C@@H]2CCCN2C(=O)[C@H]([C@@H](C)CC)NC(=O)[C@H]([C@@H](C)O)NC(=O)[C@H](CC(=O)O)NC1=O [[1-Nal21]ShK]
IC50 [1, 4]: 8.13 nM
IC50 [2]: 0.669 nM
IC50 [3]: 6.59 nM

CCCC[C@@H]1NC(=O)[C@H](CO)NC(=O)[C@H](Cc2c[nH]cn2)NC(=O)[C@H](CCCCN)NC(=O)[C@@H]2CSSC[C@@H]3NC(=O)[C@H]([C@@H](C)O)NC(=O)[C@H](CCCCN)NC(=O)[C@H](CCCNC(=N)N)NC(=O)[C@H](CSSC[C@H](NC(=O)[C@H](CCCNC(=N)N)NC(=O)[C@H](CO)NC(=O)[C@H](CCCCN)NC(=O)[C@@H]4CCCN4C(=O)[C@H]([C@@H](C)CC)NC(=O)[C@H]([C@@H](C)O)NC(=O)[C@H](CC(=O)O)NC(=O)[C@H](CCC(=O)O)NC(=O)[C@@H](NC(=O)[C@H](CO)NC(=O)[C@@H](N)CCCNC(=N)N)CSSC[C@@H](C(N)=O)NC(=O)[C@H]([C@@H](C)O)NC(=O)CNC3=O)C(=O)N[C@@H]([C@@H](C)O)C(=O)N[C@@H](C)C(=O)N[C@@H](C)C(=O)N[C@@H](CCCCN)C(=O)N2)NC(=O)[C@H](Cc2ccccc2)NC(=O)[C@H](CO)NC(=O)[C@H](CC(C)C)NC(=O)[C@H](CCCNC(=N)N)NC(=O)[C@H](Cc2ccc(O)cc2)NC(=O)[C@H](CCCCN)NC1=O [[Glu4,A1a15,Lys16,Nle21]ShK-amide]
IC50 [1, 4]: 0.901 nM
IC50 [2]: 0.168 nM
IC50 [3]: 0.856 nM

CC[C@H](C)[C@@H]1NC(=O)[C@@H](NC(=O)[C@H](CO)NC(=O)[C@@H](N)CCCNC(=N)N)CSSC[C@@H](C(=O)O)NC(=O)[C@H]([C@@H](C)O)NC(=O)CNC(=O)[C@@H]2CSSC[C@@H]3NC(=O)[C@H](CCC(N)=O)NC(=O)[C@H](Cc4ccccc4)NC(=O)[C@H](C)NC(=O)[C@H]([C@@H](C)O)NC(=O)[C@H](CSSC[C@H](NC(=O)[C@H](Cc4ccccc4)NC(=O)[C@H](CO)NC(=O)[C@H](CC(C)C)NC(=O)[C@H](CCCNC(=N)N)NC(=O)[C@H](Cc4ccc(O)cc4)NC(=O)[C@H](CCCCN)NC(=O)[C@H](CCSC)NC(=O)[C@H](CO)NC(=O)[C@H](Cc4c[nH]cn4)NC(=O)[C@H](Cc4cccc5ccccc45)NC3=O)C(=O)N[C@@H](CCCNC(=N)N)C(=O)N[C@@H](CCCCN)C(=O)N[C@@H]([C@@H](C)O)C(=O)N2)NC(=O)[C@H](CCCNC(=N)N)NC(=O)[C@H](CO)NC(=O)[C@H](CCCCN)NC(=O)[C@@H]2CCCN2C(=O)[C@H]([C@@H](C)CC)NC(=O)[C@H]([C@@H](C)O)NC(=O)[C@H](CC(=O)O)NC1=O [[1-Nal18]ShK]
IC50 [1, 4]: 0.375 nM
IC50 [2]: 0.471 nM
IC50 [3]: 0.419 nM

CC[C@H](C)[C@@H]1NC(=O)[C@H]([C@@H](C)O)NC(=O)[C@H](CC(=O)O)NC(=O)[C@H](CCC(=O)O)NC(=O)[C@@H](NC(=O)[C@H](CO)NC(=O)[C@@H](N)CCCNC(=N)N)CSSC[C@@H](C(N)=O)NC(=O)[C@H]([C@@H](C)O)NC(=O)CNC(=O)[C@@H]2CSSC[C@@H]3NC(=O)[C@H](CCCCN)NC(=O)[C@H](Cc4ccccc4)NC(=O)[C@H](C)NC(=O)[C@H]([C@@H](C)O)NC(=O)[C@H](CSSC[C@H](NC(=O)[C@H](Cc4ccccc4)NC(=O)[C@H](CO)NC(=O)[C@H](CC(C)C)NC(=O)[C@H](CCCNC(=N)N)NC(=O)[C@H](Cc4ccc(O)cc4)NC(=O)[C@H](CCCCN)NC(=O)[C@H](CCSC)NC(=O)[C@H](CO)NC(=O)[C@H](Cc4c[nH]cn4)NC(=O)[C@H](CCCNC(=N)N)NC3=O)C(=O)N[C@@H](CCCCN)C(=O)N[C@@H](CCCNC(=N)N)C(=O)N[C@@H]([C@@H](C)O)C(=O)N2)NC(=O)[C@H](CCCNC(=N)N)NC(=O)[C@H](CCC(=O)O)NC(=O)[C@H](CCC(=O)O)NC(=O)[C@@H]2CCCN2C1=O [[Glu4,9,10; Lys16,29;Arg18, 30]ShK-amide] (H-RSCEDTIPEERCTAFKCRHSMKYRLSFCKRTCGTC-NH2; disulfide 3-35, 12-28, 17-32)
IC50 [1, 4]: 0.513 nM
IC50 [2]: 0.059 nM
IC50 [3]: 0.204 nM
